Here are results for nine compounds from patent publication US12622909B2, “Allosteric EGFR inhibitors and methods of use thereof” (Dana-Farber Cancer Institute, Inc., priority 2019, dated 2026).

Each structure is given as a SMILES string. Like-named read-outs stand apart in the source and are kept apart here.

One test concerns the target EGFR L858R/T790M (Homo sapiens, UniProt P00533, L858R/T790M). The test can be described thus: HTRF-based EGFR biochemical assay (L858R/T790M). To be noted: 100 μM ATP, enzyme 0.02 nM. Here is the method:
(§1) EGFR biochemical activity measurements were carried out using the homogeneous time-resolved fluorescence (HTRF) assay (Cisbio). Inhibitors and DMSO normalizations were first dispensed to empty black low-volume 384-well plates (Corning) with D300 digital liquid dispenser (HP). All reactions were carried out at room temperature and solutions were added to plates with a Multidrop Combi Reagent Dispenser (ThermoFisher). The reaction mixture (10 μL final volume) contained 1 μM tyrosine kinase peptide-biotin substrate and mutant EGFR in a reaction buffer (50 mM HEPES pH 7.0, 5 mM MgCl2, 1 mM MnCl2, 0.01% BSA, 2 mM TCEP, 0.1 mM NaVO4). […] Enzyme reaction solution (2× concentrations, 5 μL) was added to 384-well plates containing compounds and incubated for 30 mins. Enzyme reactions were initiated with the addition of 5 μL of ATP to a final concentration of 100 μM and reacted for 20 mins.
In general terms: Time-resolved FRET reads energy transfer from a long-lived donor to a nearby acceptor.

Test [1] addresses EGFR L858R/T790M mutant Ba/F3 cells (Homo sapiens, UniProt P00533, T790M/L858R, cells depend on it). The test can be described thus: Ba/F3 cell proliferation (Cell Titer Glo). In kind it is cell-based, murine. To be noted: 72 hours. From the text:
All cell lines were maintained in RPMI 1640 (Cellgro; Mediatech Inc., Herndon, CA) supplemented with 10% FBS, 100 units/mL penicillin, 100 units/mL streptomycin. The EGFR I941R mutation was introduced via site directed mutagenesis using the Quick Change Site-Directed Mutagenesis kit (Stratagene; La Jolla, CA) according to the manufacturer's instructions. All constructs were confirmed by DNA sequencing. The constructs were shuttled into the retroviral vector JP1540 using the Cre-recombination system (Agilent Technologies, Santa Clara, CA). Ba/F3 cells were then infected with retrovirus per standard protocols, as described previously (Zhou, et al, Nature 2009). Stable clones were obtained by selection in puromycin (2 μg/ml).
Growth and inhibition of growth was assessed by the Cell Titer Glo assay (Promega, Madison, WI) and was performed according to the manufacturer's instructions. The Cell Titer Glo assay is a luminescence-based method used to determine the number of viable cells based on quantitation of the ATP present, which is directly proportional to the amount of metabolically active cells present. […] All experimental points were set up in triplicates in 384-well plates and all experiments were repeated at least three times. […] The curves were fitted using a non-linear regression model with a sigmoidal dose response.

In the next test the target is EGFR L858R (Homo sapiens, UniProt P00533, L858R). The test can be described thus: HTRF-based EGFR biochemical assay (L858R). To be noted: 100 μM ATP, enzyme 0.1 nM. The procedure:
as §1, with “20 mins. Reactions were quenched with the addition of 10 μL of phospho-tyrosine antibody-Europium(III) cryptate (1-to-180 volume ratio) and Streptavidin-XL665 (46.7 nM) in EDTA-containing detection buffer, then incubated at room temperature for 1 hour, and read with a PHERAstar plate reader (excitation=337 nm, emission=620 nm and 665 nm).” for “20 mins.”

Setting [2] is: in combination with 1 μg/ml cetuximab, read-out: Cell IC50 BaF3 L858R/T790M compound + cetuximab.
Where [3] appears, read: single agent, read-out: Cell IC50 EGFR BaF3 L858R/T790M.

EGFR L858R/T790M mutant Ba/F3 cells, sequence (P00533 whole entry T790M/L858R): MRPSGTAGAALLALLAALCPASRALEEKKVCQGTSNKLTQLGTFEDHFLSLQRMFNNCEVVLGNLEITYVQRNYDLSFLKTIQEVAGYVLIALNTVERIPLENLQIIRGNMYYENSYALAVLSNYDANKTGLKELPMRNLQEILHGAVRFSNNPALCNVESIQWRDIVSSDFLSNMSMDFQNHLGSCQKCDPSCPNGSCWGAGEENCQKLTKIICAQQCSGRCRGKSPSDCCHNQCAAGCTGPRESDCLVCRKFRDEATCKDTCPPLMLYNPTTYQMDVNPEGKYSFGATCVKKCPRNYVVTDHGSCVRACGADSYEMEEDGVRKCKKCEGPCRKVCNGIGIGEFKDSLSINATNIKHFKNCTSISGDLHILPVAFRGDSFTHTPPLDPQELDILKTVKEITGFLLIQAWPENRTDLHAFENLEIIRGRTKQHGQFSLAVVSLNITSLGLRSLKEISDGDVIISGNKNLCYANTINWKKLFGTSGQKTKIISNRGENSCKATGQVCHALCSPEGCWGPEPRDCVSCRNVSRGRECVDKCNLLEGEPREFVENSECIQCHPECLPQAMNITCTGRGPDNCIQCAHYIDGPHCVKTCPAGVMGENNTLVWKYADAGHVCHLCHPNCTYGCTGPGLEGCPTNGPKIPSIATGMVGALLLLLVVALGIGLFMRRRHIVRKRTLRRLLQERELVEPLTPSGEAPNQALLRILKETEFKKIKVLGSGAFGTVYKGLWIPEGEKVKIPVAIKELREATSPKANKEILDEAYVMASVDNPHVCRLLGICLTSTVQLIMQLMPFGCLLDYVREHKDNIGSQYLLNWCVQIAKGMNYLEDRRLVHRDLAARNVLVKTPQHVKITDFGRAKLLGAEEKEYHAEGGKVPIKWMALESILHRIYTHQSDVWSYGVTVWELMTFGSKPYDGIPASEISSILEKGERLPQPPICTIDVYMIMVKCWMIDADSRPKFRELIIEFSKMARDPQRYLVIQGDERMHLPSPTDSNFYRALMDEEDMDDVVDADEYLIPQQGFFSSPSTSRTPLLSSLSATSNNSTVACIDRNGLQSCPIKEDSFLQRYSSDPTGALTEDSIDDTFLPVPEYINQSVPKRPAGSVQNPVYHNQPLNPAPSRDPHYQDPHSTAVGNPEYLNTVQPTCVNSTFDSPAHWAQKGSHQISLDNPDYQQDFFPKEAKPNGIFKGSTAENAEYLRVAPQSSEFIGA
EGFR L858R/T790M, sequence (P00533 25-1210 T790M/L858R): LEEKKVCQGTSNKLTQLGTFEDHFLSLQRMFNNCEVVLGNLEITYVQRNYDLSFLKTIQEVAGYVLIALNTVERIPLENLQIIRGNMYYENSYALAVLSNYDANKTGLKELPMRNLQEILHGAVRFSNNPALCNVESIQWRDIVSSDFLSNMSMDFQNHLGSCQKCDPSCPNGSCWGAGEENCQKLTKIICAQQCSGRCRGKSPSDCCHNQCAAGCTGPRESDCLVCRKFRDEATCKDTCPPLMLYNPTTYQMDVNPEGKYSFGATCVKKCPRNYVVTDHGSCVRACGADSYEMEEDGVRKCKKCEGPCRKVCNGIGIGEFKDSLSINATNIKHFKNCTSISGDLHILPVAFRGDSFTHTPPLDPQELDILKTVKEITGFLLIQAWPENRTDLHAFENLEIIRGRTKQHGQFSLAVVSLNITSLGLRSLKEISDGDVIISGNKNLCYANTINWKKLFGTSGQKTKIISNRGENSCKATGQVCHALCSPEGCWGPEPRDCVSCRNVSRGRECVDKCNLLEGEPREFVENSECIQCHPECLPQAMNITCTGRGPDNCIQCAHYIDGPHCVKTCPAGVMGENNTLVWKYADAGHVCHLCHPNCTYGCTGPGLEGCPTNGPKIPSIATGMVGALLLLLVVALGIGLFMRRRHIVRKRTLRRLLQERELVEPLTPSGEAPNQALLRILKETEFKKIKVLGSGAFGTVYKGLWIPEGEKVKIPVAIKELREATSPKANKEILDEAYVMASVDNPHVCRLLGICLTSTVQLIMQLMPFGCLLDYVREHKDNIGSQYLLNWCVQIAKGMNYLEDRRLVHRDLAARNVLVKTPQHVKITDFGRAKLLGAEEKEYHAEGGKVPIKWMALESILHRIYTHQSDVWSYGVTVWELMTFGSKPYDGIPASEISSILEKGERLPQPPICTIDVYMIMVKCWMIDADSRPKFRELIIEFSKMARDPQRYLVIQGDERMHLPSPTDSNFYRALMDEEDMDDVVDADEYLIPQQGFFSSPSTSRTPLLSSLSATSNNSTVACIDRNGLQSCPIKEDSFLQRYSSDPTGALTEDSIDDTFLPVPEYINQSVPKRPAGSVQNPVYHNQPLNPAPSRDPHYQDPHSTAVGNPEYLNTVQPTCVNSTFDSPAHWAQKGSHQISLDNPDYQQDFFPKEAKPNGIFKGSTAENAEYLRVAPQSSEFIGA
EGFR L858R, sequence (P00533 25-1210 L858R): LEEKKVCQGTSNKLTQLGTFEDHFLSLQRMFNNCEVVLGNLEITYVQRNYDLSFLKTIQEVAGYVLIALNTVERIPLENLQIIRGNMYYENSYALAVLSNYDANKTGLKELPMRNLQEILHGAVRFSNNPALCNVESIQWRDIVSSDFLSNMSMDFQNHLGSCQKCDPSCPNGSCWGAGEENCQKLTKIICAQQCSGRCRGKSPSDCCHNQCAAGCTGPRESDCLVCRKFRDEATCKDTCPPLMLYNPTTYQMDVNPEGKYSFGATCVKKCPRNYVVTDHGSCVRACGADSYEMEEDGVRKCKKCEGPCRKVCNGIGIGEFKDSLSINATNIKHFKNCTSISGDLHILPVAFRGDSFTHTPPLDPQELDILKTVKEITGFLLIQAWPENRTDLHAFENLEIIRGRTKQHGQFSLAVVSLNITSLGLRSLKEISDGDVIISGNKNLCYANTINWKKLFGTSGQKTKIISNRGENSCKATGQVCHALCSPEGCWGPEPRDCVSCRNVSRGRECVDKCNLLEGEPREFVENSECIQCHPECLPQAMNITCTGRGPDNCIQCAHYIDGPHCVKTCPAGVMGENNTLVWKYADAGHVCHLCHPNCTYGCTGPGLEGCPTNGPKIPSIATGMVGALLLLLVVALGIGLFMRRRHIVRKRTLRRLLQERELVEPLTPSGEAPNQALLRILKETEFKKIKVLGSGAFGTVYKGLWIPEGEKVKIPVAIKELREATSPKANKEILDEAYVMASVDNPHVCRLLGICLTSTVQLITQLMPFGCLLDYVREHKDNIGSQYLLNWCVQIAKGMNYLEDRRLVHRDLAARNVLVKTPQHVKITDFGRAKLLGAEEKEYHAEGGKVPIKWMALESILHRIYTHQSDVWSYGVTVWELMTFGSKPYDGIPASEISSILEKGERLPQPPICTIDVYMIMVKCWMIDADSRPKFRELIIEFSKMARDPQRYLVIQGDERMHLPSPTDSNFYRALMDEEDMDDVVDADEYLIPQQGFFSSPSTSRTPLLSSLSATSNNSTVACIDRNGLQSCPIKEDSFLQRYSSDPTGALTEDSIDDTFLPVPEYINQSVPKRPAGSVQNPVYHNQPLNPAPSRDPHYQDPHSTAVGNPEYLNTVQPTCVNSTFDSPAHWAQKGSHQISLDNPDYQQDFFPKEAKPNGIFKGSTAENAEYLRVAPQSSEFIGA

Turning to `CN1CCC(c2ccc(-c3ccc4c(F)cn(C(C(=O)Nc5nccs5)c5ccccc5)c(=O)c4c3)cc2)CC1` (stereo not drawn) [Compound 036, 2-(4-Fluoro-7-(4-(1-methylpiperidin-4-yl)phenyl)-1-oxoisoquinolin-2(1H)-yl)-2-phenyl-N-(thiazol-2-yl)acetamide], the IC50 – broadly, the midpoint of a concentration-inhibition curve – on EGFR L858R/T790M was determined as 0.3 nM; against EGFR L858R, 4 nM. Besides, the GI50 worked out at 23 nM in test [1] (setting [2]) and 920 nM in test [1] (setting [3]).
Take `CN1CCN(c2ccc(-c3ccc4c(F)cn(C(C(=O)Nc5nccs5)c5ccccc5)c(=O)c4c3)cc2)CC1` (stereo not drawn) [Compound 037, 2-(4-Fluoro-7-(4-(4-methylpiperazin-1-yl)phenyl)-1-oxoisoquinolin-2(1H)-yl)-2-phenyl-N-(thiazol-2-yl)-acetamide]: the results for the IC50 against EGFR L858R/T790M and at EGFR L858R were 1 nM and 8 nM, respectively. Further, the GI50 in test [1] (setting [2]) came to 22 nM; in test [1] (setting [3]), 2650 nM.
Turning to `CN1CCC(c2ccc(-c3ccc4ncn(C(C(=O)Nc5ccccn5)c5ccccc5)c(=O)c4c3)cc2)CC1` (stereo not drawn) [Compound 038, 2-(6-(4-(1-Methylpiperidin-4-yl)-phenyl)-4-oxaquinazolin-3(4H)-yl)-2-phenyl-N-(pyridin-2-yl)acetamide], the IC50 was determined as 2 nM on EGFR L858R/T790M and 9 nM at EGFR L858R. In addition, the GI50 in test [1] (setting [2]) stood at 57 nM; in test [1] (setting [3]), 1860 nM.
Taken in the same sequence, the figures for `CN1CCN(c2ccc(-c3ccc4ncn(C(C(=O)Nc5ccccn5)c5ccccc5)c(=O)c4c3)cc2)CC1` (stereo not drawn) [Compound 039, 2-(6-(4-(4-Methylpiperazin-1-yl)-phenyl)-4-oxoquinazolin-3(4H)-yl)-2-phenyl-N-(pyridin-2-yl)acetamide] were 9 nM, 191 nM, 76 nM and 1780 nM.
On the same counts, the results for `O=C(Nc1nccs1)C(c1ccccc1)n1ncc2ccc(Br)cc2c1=O` (stereo not drawn) [Compound 041, 2-(7-Bromo-1-oxophthalazin-2(1H)-yl)-2-phenyl-N-(thiazol-2-yl)-acetamide] are 31 nM, greater than 1000 nM, greater than 10000 nM and greater than 10000 nM.
On the same counts, the results for `CN1CCC(c2ccc(-c3ccc4cnn(C(C(=O)Nc5nccs5)c5ccccc5)c(=O)c4c3)cc2)CC1` (stereo not drawn) [Compound 042, 2-(7-(4-(1-Methylpiperidin-4-yl)-phenyl)-1-oxophtharazin-2(1H)-yl)-2-phenyl-N-(thiazol-2-yl)acetamide] are 4 nM, 35 nM, 250 nM and 1460 nM.
Take `CN1CCN(c2ccc(-c3ccc4cnn(C(C(=O)Nc5nccs5)c5ccccc5)c(=O)c4c3)cc2)CC1` (stereo not drawn) [Compound 043, 2-(7-(4-(4-Methylpiperazin-1-yl)-phenyl)-1-oxophthalazin-2(1H)-yl)-2-phenyl-N-(thiazol-2-yl)acetamide]: the IC50 is 10 nM at EGFR L858R/T790M and 90 nM against EGFR L858R. Further, the GI50 was found to be 380 nM in test [1] (setting [2]) and 2160 nM in test [1] (setting [3]).
On the same counts, the results for `Cc1nc2ccc(-c3ccc(C4CCN(C)CC4)cc3)cc2c(=O)n1C(C(=O)Nc1nccs1)c1ccccc1` (stereo not drawn) [Compound 044, 2-(2-Methyl-6-(4-(1-methylpiperidin-4-yl)phenyl)-4-oxoquinazolin-3(4H)-yl)-2-phenyl-N-(thiazol-2-yl)acetamide] are 283 nM, greater than 1000 nM, 790 nM and 2460 nM.
Taken in the same sequence, the figures for `Cc1nc2ccc(-c3ccc(N4CCN(C)CC4)cc3)cc2c(=O)n1C(C(=O)Nc1nccs1)c1ccccc1` (stereo not drawn) [Compound 045, 2-(2-Methyl-6-(4-(4-methylpiperazin-1-yl)phenyl)-4-oxoquinazolin-3(4H)-yl)-2-phenyl-N-(thiazol-2-yl)-acetamide] were 297 nM, greater than 1000 nM, 4100 nM and 4100 nM.
